Results published in patent publication US20040096815A1, “Method of identifying an eventual modification of at least one biological parameter making use of living cells which are subjected to a stress and living cells which are not subjected to this same stress” (COLETICA, priority 2002, published 2004).
Like-named read-outs stand apart in the source and are kept apart here.

How the values were obtained:
[1] = test system: pigmented reconstructed skins; assay: Interleukin secretion (Fluorokine MAP) of pigmented reconstructed skins under repeated solar irradiation with anti-oxidant actives; assay type: cell-based; conditions: for restoring cell viability and synthesis of pro-inflammatory interleukins after solar irradiation: actives at 3% in a cosmetic formulation; for IL1 beta secretion (Fluorokine MAP) / IL6 secretion (Fluorokine MAP) / IL8 secretion (Fluorokine MAP) / TNF alpha secretion (Fluorokine MAP): solar irradiation 561 KJ/m^2 twice per week for two weeks, 8 μl cosmetic formulation with active at 3%, 10 days
Method: The reconstructed dermis comprising cells called <<stressed cells>> or <<reference cells>> are then incubated in a medium without serum (FBM, Promocell) for 24 hours. The cell viability in the matrices is evaluated by a test with MTT (methylthiazoletetrazolium) and is expressed in percentage of the non-irradiated control. The media are collected, centrifuged, and the cytokines content is determined by the Fluorokine MAP kit (R&D Systems). Briefly, 50 μl of standards or of samples are pipetted into identified wells. 50 μl of microparticles immobilizing specific antibodies of different cytokines are added into the wells as a function of a pre-defined plate plan. After one hour of incubation under orbital agitation, and elimination of the non-fixed substances by washing, labeled antibodies which are specific of different cytokines are added into the wells and are incubated for 2 hours under orbital agitation. After washing, the microparticles are suspended in washing buffer, are agitated for 1 minute under orbital agitation. The reading is carried out immediately on a Luminex 100 Analyser (R&D Systems). The contents of the different cytokines which are present in the media analyzed are determined by virtue of calibration ranges made with highly purified recombinant human cytokines. This technique enables an experimentation to analyze the cellular secretion of various cytokines (IL-1β, IL-2, IL-4, IL-6, IL-8, IL-10, TNFα, GM-CSF, G-CSF, VEGF, bFGF, G-CSF, IFNγ).
The cells extracted are obtained from a mammary biopsy non-exposed to the stress studied. 400,000 fibroblasts, amplified until passage 5 (5th amplification by trypsination) as described in Example 1, are sown on dermal substrates based on surfaced sponges of collagen, in a DMEM-Glutamax culture medium supplemented with 10% of hyclone II calf serum, with ascorbic acid-2-phosphate at a final concentration of 1 millimolar, with EGF or Epidermal growth factor at a final concentration of 10 ng/mL, with penicillin at a final concentration of 100 IU/milliliter, with amphotericin B at a final concentration of 1 microgram/milliliter, and with gentamycin at a final concentration of 20 micrograms/milliliter, and for a period of culture of 14 days.
Then, 400,000 keratinocytes and 10,000 melanocytes, amplified until passage 2 (2nd amplification by trypsination) as described in Example 1, are sown on the dermal equivalents in a DMEM-Glutamax/Ham F-12 (ratio 3/1 v/v) culture medium supplemented with 10% of Hyclone II calf serum, with ascorbic acid-2-phosphate at a final concentration of 1 millimolar, with EGF at a final concentration of 10 ng/mL, with hydrocortisone at a final concentration of 0.4 micrograms/milliliter, with umulin at a final concentration of 0.12 IU/milliliter, with isuprel at a final concentration of 0.4 micrograms/milliliter, with triiodothyronine at a final concentration of 2.10^−9 molar, with adenine at a final concentration of 24.3 micrograms/milliliter, with penicillin at a final concentration of 100 IU/milliliter, with amphotericin B at a final concentration of 1 microgram/milliliter, and with gentamycin at a final concentration of 20 micrograms/milliliter, and for a period of immersion culture of 7 days.
The cultures are then placed at the air-liquid interface for 14 days in the same culture medium as that used for the immersion culture, except the calf serum, the hydrocortisone, the isuprel, the triiodothyronine and the umulin.
Twice per week and for two weeks, the immersion medium is eliminated and replaced by PBS at pH 7.4. Certain pigmented reconstructed skins present in the inserts are preserved at ambient temperature; this model comprises cells which are called “reference cells”. Other pigmented reconstructed skins present in the inserts are irradiated at 561 KJ/m^2 (corresponding to an average hour of exposure in Central Europe) with the aid of a solar irradiator Suntest CPS+ (ATLAS); this model comprises cells which are called “stressed cells”.

[2] = test system: normal human keratinocytes in monolayer; assay: hBD2 and hBD3 expression (RT-PCR, band intensity vs actin) in keratinocytes in monolayer; assay type: cell-based; conditions: 100 ng/ml, 16 hours
Method: The normal human keratinocytes are cultivated in monolayer on 96-wells culture plates, in a defined medium without serum and enriched with calcium (final concentration 1.7 mM).
At 80% of confluence, the cells are placed in contact with a chemical stress, i.e. molecules which mimic a microbial attack, such as TNFα (100 ng/ml) or IFNγ (100 ng/ml), for 16 hours. Keratinocytes which are non-stressed, i.e. which are not placed in contact with the chemical substances mimicking a microbial attack, are used in a model of reconstructed epidermis.
After 16 hours, the supernatants are collected and the cells are dry frozen at −80° C. after a rinsing with PBS.
The total RNAs are extracted with the aid of a 96-wells fluo extraction kit on silica columns and are determined on a 96-wells spectrophotometer at 260 and 280 nm. The RNAs are diluted at 5 ng/μl.
The one-step qualitative RT-PCR is carried out on 50 ng of RNA (initial) in 96 wells, on actin, hBD2 and hBD3. The primers are used at 0.5 μM and are from the literature: hBD2sense: 5′-[…]-3′; hBD2antisense: 5′-GGAGCCCJTlCTGMTC CGCA-3′ (Harder J. et al., A peptide antibiotic from human skin. Nature 1997; 387: 861); hBD3sense: 5′-[…]-3′, hBD3 antisense: 5′-[…] […]-3′; actin sense: 5′-[…]-3′, actin antisense: 5′-[…]lTTC-3′ (Harder J. et al., Isolation and characterization of hBD3, a novel human inducible peptide antibiotic. J. Biol. Chem. 2001; 276: 5707-5713).
The samples are placed in a thermocycler and following a common program of amplification: 50° C., 30 mins; 94° C., 2 mins; (94° C., 30 secs; 60° C., 30 sec; 68° C., 30 sec) 32 cycles for the defensins and 30 cycles for the actin; 72° C., 10 min; 14° C., infinity.
After amplification, the products are mixed at the rate of 3 μl of products of amplification of actin+6 μl of products of amplification of hBD2+6 μl of products of amplification of hBD3. 5 μl of a mixture of filler buffer and water (2/3) are added and the final 20 μl are deposited on a pre-poured 2% agarose gel. The samples migrate in 30 minutes and the bands are visualized under UV in a black chamber and are photographed digitally.
(§1) The photographs of the gels are analyzed by an image treatment software which quantifies the intensity of the bands. The ratios of intensity of the hBD2/actin and hBD3/actin bands are compared on the one hand between the monolayer model and the 3D model (reconstructed epidermis) in a non-stressed condition, and, on the other hand, following the effect of a stress (cells treated with TNFβ or IFNγ).

[3] = test system: reconstructed epidermis (foreskin keratinocytes); assay: hBD2 and hBD3 expression (RT-PCR, band intensity vs actin) in 3D reconstructed epidermis; assay type: cell-based, human; conditions: 100 ng/ml, 24 hours
Method: At the end of experimentation, the reconstructed epidermis are treated in the following manner:
1 sample undergoes no treatment (model comprising reference cells=negative control).
1 sample undergoes no treatment with the actives but undergoes various types of stress at the end of culture (model comprising stressed cells=positive control), e.g. incubation in the presence of TNFα at 100 ng/ml, IFN γ100 ng/ml.
1 sample undergoes the treatment with the active (1% in the culture medium for 24 hours) and then a stress (equivalent to the positive control).
The RNAs are diluted at 5 ng/μl and are treated as described above.
as §1

reconstructed skins = test system: reconstructed skins
Method: Reconstructed skins are made according to the protocol described in Example 6.
The UVB irradiation at the rate of 50 mJ/cm^2 is made for half the samples comprising <> cells. The other samples are preserved at ambient temperature under the same conditions, and constitute samples comprising <> cells.
At the end of experimentation, the content of tropoelastin mRNA, collagen of type I and collagen of type III is evaluated by a real time RT-PCR technique. For this, couples of primers enabling the amplification of specific fragments of tropoelastin, of collagen of type I and of collagen of type III (sense 18/antisense 19 and sense 18/antisense 20, respectively) and actin sequence primers (541 pairs of bases) were used. After extraction in TriReagent® (Sigma) and purification of the RNAs according to the protocol of the supplier, the reactions of RT-PCR (Reverse Polymerase Transcription Chain reactions) are carried out by quantitative real time RT-PCR with the aid of the <<Opticon>> system (MJ Research).
The reaction mixture (50 μl) introduced into the well is the following, for each sample:
10 μl of RNA at the concentration of 5 ng/μl.
The primers of the various labelers used
Reaction mixture (Qiagen-25 μl 2×QuantiTect SYBR Green RT-PCR master mix containing 5 mM MgCl2+0.5 μl QuantiTect RT mix), the labeler SYBR Green I inserting itself in the DNA double strand during elongation step).
Reverse transcription: 30 min at 50° C.,
PCR reactions: [15 sec at 94° C., 30 sec at 60° C. and 30 sec at 72° C.], 50 cycles.
The absence of contamination and the purity of the products amplified are verified by the melting curves of the amplified PCR products. The products having a double peak or an abnormal melting temperature are eliminated.
The incorporation of fluorescence in the amplified DNA was evaluated continuously during the PCR cycles. This system enables obtaining fluorescence measurement curves as a function of the number of PCR cycles and thus to evaluate a relative quantity of amplified DNA.
In order to take account of the:cell population present in the reconstructed skins, all the results were attributed to the signal <>, used as housekeeping gene.
According to the experimentation, the measurement threshold of the C(T) (=cycle threshold) is fixed for T between 0.05 and 0.01 and then an arbitrary unit of measurement is calculated for each gene according to the formula:
Sgene <>=10^7X(½)^C(T)gene <<X>>
C(T)gene <> signifying the measurement threshold of the C(T) (Cycle Threshold) of the gene <>.
The values of the genes of interest are attributed to the signal <> by calculation of the ratio:
These ratios are compared between the treated and non-treated samples.

[4] = UVB 50 mJ/cm^2, then 24 h with active at 1%
[5] = UVB 50 mJ/cm^2, then 24 h with active at 3%

Substance	restoring cell viability and synthesis of pro-inflammatory interleukins after solar irradiation [1]	IL1 beta secretion (Fluorokine MAP) [1]	IL6 secretion (Fluorokine MAP) [1]	IL8 secretion (Fluorokine MAP) [1]	TNF alpha secretion (Fluorokine MAP) [1]	HBD2, ratio of intensity of the hBD2/actin bands [2]	HBD3, ratio of intensity of the hBD3/actin bands [2]	HBD2, ratio of intensity of the hBD2/actin bands [3]	HBD3, ratio of intensity of the hBD3/actin bands [3]	limiting the UVB-induced increase in RNAs of collagen type I, type III and elastin (reconstructed skins; 1 and 3%)	Collagen I mRNA, ratio R = Sgene/Sactin (reconstructed skins; [4])	Collagen III mRNA, ratio R = Sgene/Sactin (reconstructed skins; [4])	Elastin mRNA, ratio R = Sgene/Sactin (reconstructed skins; [4])	Collagen I mRNA, ratio R = Sgene/Sactin (reconstructed skins; [5])	Collagen III mRNA, ratio R = Sgene/Sactin (reconstructed skins; [5])	Elastin mRNA, ratio R = Sgene/Sactin (reconstructed skins; [5])
Hesperitine Laurate [Flavagrum ®]	have shown an effectiveness capable of tending to restoring the reference level for these two parameters	125 pg/mL	452 pg/mL	312 pg/mL	105 pg/mL	–	–	–	–	–	–	–	–	–	–	–
IFNγ: molecule mimicking a microbial attack, used as stress	–	–	–	–	–	0.450	0.370	0.581	0.492	–	–	–	–	–	–	–
Quercitine Caprylate [Flavenger ®]	have shown an effectiveness capable of tending to restoring the reference level for these two parameters	97 pg/mL	426 pg/mL	294 pg/mL	89 pg/mL	–	–	–	–	enables limiting the effects of the UVB stress induced by restoring, in a dose-dependent manner, the synthesis of these molecules	0.94	1.37	4.87	0.92	1.26	4.61
TNFα	–	–	–	–	–	1.240	0.266	1.617	0.546	–	–	–	–	–	–	–
